ChEMBL document CHEMBL4837215, “Application of cation-π interactions in enzyme-substrate binding: Design, synthesis, biological evaluation, and molecular dynamics insights of novel hydrophilic substrates for NQO1” (Eur J Med Chem, 2021)
In brackets after ≈: the same amount, converted by molar mass. Activity calls are given as the source filed them. The rule behind the calls is not given here.

Columns and labels:
[1] = target: NAD(P)H dehydrogenase [quinone] 1 (Homo sapiens) (UniProt P15559); test: Substrate activity at recombinant human NQO1 assessed as enzymatic reduction rate at 10 uM
NAD(P)H dehydrogenase [quinone] 1 (Homo sapiens), sequence (P15559 whole entry): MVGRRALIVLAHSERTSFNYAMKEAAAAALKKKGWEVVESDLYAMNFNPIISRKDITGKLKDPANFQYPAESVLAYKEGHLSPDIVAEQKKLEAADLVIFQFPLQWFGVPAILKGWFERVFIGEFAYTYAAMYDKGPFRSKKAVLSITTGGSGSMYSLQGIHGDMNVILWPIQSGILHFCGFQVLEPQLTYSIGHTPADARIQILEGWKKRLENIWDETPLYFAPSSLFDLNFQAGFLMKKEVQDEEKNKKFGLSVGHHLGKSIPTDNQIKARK

[2] = test system: A549; test: Cytotoxicity against human A549 cells overexpressing NQO1 assessed as reduction in cell viability incubated for 72 hrs by MTT assay; assay type: functional, cell-based; settings: A549, 72 h
[3] = test system: L02; test: Cytotoxicity against NQO1-deficient human L02 cells assessed as reduction in cell viability incubated for 72 hrs by MTT assay; assay type: cell-based; settings: L02, 72 h
[4] = Selectivity index, ratio of IC50 for NQO1-deficient human L02 cells to IC50 for human A549 cells overexpressing NQO1 incubated for 72 hrs by MTT assay
[5] = test system: A549; test: Induction of apoptosis in human A549 cells assessed as condensed nuclei at 1 to 10 uM measured after 24 hrs by DAPI based confocal laser scanning microscopic method; assay type: functional, cell-based; settings: dose 1-10 µM
[6] = Intrinsic solubility of the compound after 8 hrs by potentiometric titration method; assay type: physicochemical; settings: read-out: Intrinsic_solubility
[7] = Solubility of the compound in pH 3 after 8 hrs by potentiometric titration method; assay type: physicochemical; settings: buffer
[8] = Lipophilicity, logD of the compound at pH 7.4 by potentiometric titration method; assay type: physicochemical; settings: buffer
[9] = test system: A549/TR; test: Cytotoxicity against human A549/Taxol cells overexpressing NQO1 assessed as reduction in cell viability incubated for 72 hrs by MTT assay; assay type: functional, cell-based
[10] = test system: A549; test: Cytotoxicity against human DPP-resistant A549 cells overexpressing NQO1 assessed as reduction in cell viability incubated for 72 hrs by MTT assay; assay type: functional, cell-based; settings: A549, 72 h
[11] = test system: NCI-H596; test: Cytotoxicity against NQO1-deficient human NCI-H596 cells assessed as reduction in cell viability incubated for 72 hrs by MTT assay; assay type: functional, cell-based; settings: NCI-H596, 72 h
[12] = test system: A549; test: Cytotoxicity against NQO1-deficient human A549 cells assessed as reduction in cell viability pretreated with DIC followed by compound addition and incubated for 72 hrs by MTT assay; assay type: functional, cell-based
[13] = Selectivity index, ratio of IC50 for NQO1-deficient human NCI-H596 cells to IC50 for human A549 cells overexpressing NQO1 incubated for 72 hrs by MTT assay
[14] = Selectivity index, ratio of IC50 for human A549 cells overexpressing NQO1 to IC50 for NQO1-deficient human A549 cells assessed as reduction in cell viability pretreated with DIC followed by compound addition and measured after 72 hrs by MTT assay
[15] = test system: A549; test: Induction of ROS generation in human A549 cells at 1 to 10 uM incubated for 3 hrs by DCFH-DA staining based confocal laser scanning microscopic method; assay type: functional, cell-based; settings: dose 1-10 µM
[16] = test system: A549; test: Induction of ROS generation in human A549 cells at 10 uM pretreated with DIC or NAC for 1 hr followed by compound addition and measured after 3 hrs by DCFH-DA staining based confocal laser scanning microscopic method; assay type: functional, cell-based
[17] = test system: A549; test: Induction of superoxide anion generation in human A549 cells at 1 to 10 uM incubated for 3 hrs by […] staining based confocal laser scanning microscopic method; assay type: functional, cell-based; settings: dose 1-10 µM
[18] = test system: A549; test: Induction of superoxide anion generation in human A549 cells at 10 uM pretreated with DIC or NAC for 1 hr followed by compound addition and measured after 3 hrs by […] staining based confocal laser scanning microscopic method; assay type: functional, cell-based
[19] = target: NAD(P)H dehydrogenase [quinone] 1 (Homo sapiens) (UniProt P15559); test: Induction of recombinant human NQO1-mediated ROS generation assessed as rate of reduction of cytochrome C at 25 uM by spectrophotometric assay; settings: filed as activator
[20] = target: NAD(P)H dehydrogenase [quinone] 1 (Homo sapiens) (UniProt P15559); test: Induction of recombinant human NQO1-mediated ROS generation assessed as rate of reduction of cytochrome C at 25 uM in presence of DIC by spectrophotometric assay

Activity [1] [µmol/min] | SMILES | IC50 [2] [µM] | IC50 [3] [µM] | Ratio IC50 [4] | other results
848 | Cc1cc2c(cc1C)-c1oc(CN3CCC(N4CCCC4)CC3)c(C)c1C(=O)C2=O | 8.7 | 31.2 | 3.58 | 
1030 | Cc1cc2c(cc1C)-c1oc(CN3CCN4CCCCC4C3)c(C)c1C(=O)C2=O (stereo not given) | 4.5 | 31.6 | 7.02 | 
1260 | Cc1cc2c(cc1C)-c1oc(CN3CCN(C)CC3)c(C)c1C(=O)C2=O | 2.4 | 36.2 | 15.06 | Activity [5]: Active; solubility at 8 h [6]: 110 µg/mL (≈ 312 µM); solubility at 8 h [7]: > 1000 µg/mL; logD [8]: 1.97; IC50 [9]: 4.5 µM; IC50 [10]: 4.8 µM; IC50 [11]: 27 µM; IC50 [12]: 30 µM; Ratio IC50 [13]: 11; Ratio IC50 [14]: >12.5; Activity [15]: Active; Activity [16]: inactive; Activity [17]: Active; Activity [18]: inactive; Activity [19]: Active; Activity [20]: inactive
704 | Cc1cc2c(cc1C)-c1oc(CN(C)C)c(C)c1C(=O)C2=O | 15 | 46.9 | 3.12 | 
795 | Cc1cc2c(cc1C)-c1oc(CN3CCC(N4CCCCC4)CC3)c(C)c1C(=O)C2=O | 9.1 | 40.5 | 4.45 | 
1160 | Cc1cc2c(cc1C)-c1oc(CN3CCN(CCO)CC3)c(C)c1C(=O)C2=O | 3.1 | 35.8 | 11.56 | solubility at 8 h [6]: 61 µg/mL (≈ 159 µM); solubility at 8 h [7]: > 1000 µg/mL; logD [8]: 2.01
1100 | Cc1cc2c(cc1C)-c1oc(CN3CCN(C4CC4)CC3)c(C)c1C(=O)C2=O | 3.9 | 34.6 | 8.86 | 
1200 | CCN1CCN(Cc2oc3c(c2C)C(=O)C(=O)c2cc(C)c(C)cc2-3)CC1 | 2.9 | 35.8 | 12.36 | solubility at 8 h [6]: 82 µg/mL (≈ 224 µM); solubility at 8 h [7]: > 1000 µg/mL; logD [8]: 1.99
690 | Cc1cc2c(cc1C)-c1occ(C)c1C(=O)C2=O | 7.4 | 31.4 | 4.24 | 
1070 | Cc1cc2c(cc1C)-c1oc(CN3CCN4CCCC4C3)c(C)c1C(=O)C2=O (stereo not given) | 4.3 | 32.9 | 7.66 | 
 | CC1(C)CCC2=C(O1)c1ccccc1C(=O)C2=O [LAPACHONE] |  | 9.6 | 1.68 | IC50 [9]: 11 µM; IC50 [10]: 16 µM; IC50 [11]: 27 µM; IC50 [12]: 29 µM; Ratio IC50 [13]: 4.7; Ratio IC50 [14]: 5.1
904 | Cc1cc2c(cc1C)-c1oc(CN3CCC(N4CCN(C)CC4)CC3)c(C)c1C(=O)C2=O | 6.8 | 29.8 | 4.38 | 
871 | Cc1cc2c(cc1C)-c1oc(CN3CCN(S(C)(=O)=O)CC3)c(C)c1C(=O)C2=O | 7.2 | 31.2 | 4.33 | 
951 | Cc1cc2c(cc1C)-c1oc(CN3CCC(N4CCOCC4)CC3)c(C)c1C(=O)C2=O | 5.6 | 28.9 | 5.16 | 
996 | Cc1cc2c(cc1C)-c1oc(CN3CCOCC3)c(C)c1C(=O)C2=O | 4.9 | 28.5 | 5.81 | 
768 | Cc1cc2c(cc1C)-c1oc(CN3CCCCC3)c(C)c1C(=O)C2=O | 12 | 45.5 | 3.79 | 
